Test results as given in ChEMBL document CHEMBL4507268 (2021).

Legend:
Conditions in all cases: Compound concentration 1.0 uM
[1] = molecular target: Serine/threonine-protein kinase 33 (Homo sapiens) (UniProt Q9BYT3)
[2] = molecular target: T1, cGMP-dependent protein kinase 2 (Homo sapiens) (UniProt Q13237)
T1 sequence (whole entry): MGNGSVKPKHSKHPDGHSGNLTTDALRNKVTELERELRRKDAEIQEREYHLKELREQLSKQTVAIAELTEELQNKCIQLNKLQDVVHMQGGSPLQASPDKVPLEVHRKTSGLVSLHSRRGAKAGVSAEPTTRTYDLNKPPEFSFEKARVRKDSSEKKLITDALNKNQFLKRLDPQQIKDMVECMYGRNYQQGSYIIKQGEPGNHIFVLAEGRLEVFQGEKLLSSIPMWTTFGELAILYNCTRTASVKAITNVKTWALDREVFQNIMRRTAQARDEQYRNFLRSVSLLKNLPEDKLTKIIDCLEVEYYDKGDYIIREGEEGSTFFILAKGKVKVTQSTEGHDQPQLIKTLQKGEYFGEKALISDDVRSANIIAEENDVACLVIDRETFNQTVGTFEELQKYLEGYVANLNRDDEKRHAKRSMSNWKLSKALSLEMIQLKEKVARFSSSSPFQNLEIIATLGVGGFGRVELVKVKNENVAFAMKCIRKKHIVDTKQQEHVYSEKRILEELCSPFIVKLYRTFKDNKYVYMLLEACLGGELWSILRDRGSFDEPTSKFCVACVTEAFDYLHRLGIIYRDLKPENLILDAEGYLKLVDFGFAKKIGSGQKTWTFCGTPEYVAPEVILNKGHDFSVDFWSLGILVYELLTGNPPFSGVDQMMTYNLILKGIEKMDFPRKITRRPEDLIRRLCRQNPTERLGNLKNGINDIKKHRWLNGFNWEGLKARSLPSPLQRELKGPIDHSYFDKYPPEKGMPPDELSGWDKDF

[3] = molecular target: Serine/threonine-protein kinase N1 (Homo sapiens) (UniProt Q16512)
Serine/threonine-protein kinase N1 (Homo sapiens), sequence (Q16512 2-942 limits assumed): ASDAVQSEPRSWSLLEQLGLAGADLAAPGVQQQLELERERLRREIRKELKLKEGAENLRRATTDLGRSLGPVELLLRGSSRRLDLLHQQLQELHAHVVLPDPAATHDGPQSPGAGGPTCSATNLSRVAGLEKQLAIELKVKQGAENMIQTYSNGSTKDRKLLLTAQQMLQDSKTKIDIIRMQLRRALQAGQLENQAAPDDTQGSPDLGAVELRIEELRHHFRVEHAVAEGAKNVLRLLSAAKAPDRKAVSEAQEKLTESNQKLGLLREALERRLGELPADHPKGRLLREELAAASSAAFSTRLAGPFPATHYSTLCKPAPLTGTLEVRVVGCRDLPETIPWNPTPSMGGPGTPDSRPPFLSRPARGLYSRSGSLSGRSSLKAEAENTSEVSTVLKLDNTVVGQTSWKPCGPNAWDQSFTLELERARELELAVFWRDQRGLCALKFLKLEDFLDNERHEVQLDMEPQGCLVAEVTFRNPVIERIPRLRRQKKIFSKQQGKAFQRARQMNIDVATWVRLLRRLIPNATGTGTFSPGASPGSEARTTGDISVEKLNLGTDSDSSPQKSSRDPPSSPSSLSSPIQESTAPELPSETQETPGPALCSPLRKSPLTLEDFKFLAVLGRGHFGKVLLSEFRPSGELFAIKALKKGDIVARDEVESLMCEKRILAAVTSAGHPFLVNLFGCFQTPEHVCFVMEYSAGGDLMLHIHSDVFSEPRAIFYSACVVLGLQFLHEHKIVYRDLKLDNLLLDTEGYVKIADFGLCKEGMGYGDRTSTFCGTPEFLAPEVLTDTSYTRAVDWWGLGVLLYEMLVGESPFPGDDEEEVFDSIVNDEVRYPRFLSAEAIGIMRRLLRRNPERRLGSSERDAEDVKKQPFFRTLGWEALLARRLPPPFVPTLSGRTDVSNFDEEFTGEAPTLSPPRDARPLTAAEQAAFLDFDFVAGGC

[4] = molecular target: Interleukin-1 receptor-associated kinase 1 (Homo sapiens) (UniProt P51617)
[5] = molecular target: T2, Serine/threonine-protein kinase TAO1 (Homo sapiens) (UniProt Q7L7X3)
T2 sequence (whole entry): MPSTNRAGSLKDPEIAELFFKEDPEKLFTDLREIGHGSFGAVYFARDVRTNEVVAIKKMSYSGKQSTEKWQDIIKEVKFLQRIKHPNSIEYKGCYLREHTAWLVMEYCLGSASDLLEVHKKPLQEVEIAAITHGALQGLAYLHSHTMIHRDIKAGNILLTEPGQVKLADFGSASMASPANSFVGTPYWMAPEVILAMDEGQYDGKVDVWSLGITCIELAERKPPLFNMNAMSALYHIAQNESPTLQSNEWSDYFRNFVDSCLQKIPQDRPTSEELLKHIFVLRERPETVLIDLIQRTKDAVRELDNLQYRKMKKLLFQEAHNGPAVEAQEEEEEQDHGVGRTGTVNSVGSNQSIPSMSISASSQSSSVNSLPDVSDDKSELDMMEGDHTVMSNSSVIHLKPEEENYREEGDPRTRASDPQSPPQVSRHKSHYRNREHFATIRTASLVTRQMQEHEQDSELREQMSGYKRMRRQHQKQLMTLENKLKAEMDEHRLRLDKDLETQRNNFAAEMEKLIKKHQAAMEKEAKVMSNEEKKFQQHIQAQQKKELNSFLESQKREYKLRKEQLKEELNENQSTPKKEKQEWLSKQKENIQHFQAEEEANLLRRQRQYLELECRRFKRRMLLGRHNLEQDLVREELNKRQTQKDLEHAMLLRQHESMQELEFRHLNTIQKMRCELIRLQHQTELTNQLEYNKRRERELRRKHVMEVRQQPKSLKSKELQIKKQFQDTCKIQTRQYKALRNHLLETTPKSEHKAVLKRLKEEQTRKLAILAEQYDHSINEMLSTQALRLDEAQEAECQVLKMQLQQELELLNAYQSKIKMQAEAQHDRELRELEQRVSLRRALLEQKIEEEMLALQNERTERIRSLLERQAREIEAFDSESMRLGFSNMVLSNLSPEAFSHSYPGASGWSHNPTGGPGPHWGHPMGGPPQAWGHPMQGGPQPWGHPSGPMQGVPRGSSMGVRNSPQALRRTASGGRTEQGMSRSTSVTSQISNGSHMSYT

[6] = molecular target: Serine/threonine-protein kinase 32C (Homo sapiens) (UniProt Q86UX6)
Serine/threonine-protein kinase 32C (Homo sapiens), sequence (Q86UX6 whole entry): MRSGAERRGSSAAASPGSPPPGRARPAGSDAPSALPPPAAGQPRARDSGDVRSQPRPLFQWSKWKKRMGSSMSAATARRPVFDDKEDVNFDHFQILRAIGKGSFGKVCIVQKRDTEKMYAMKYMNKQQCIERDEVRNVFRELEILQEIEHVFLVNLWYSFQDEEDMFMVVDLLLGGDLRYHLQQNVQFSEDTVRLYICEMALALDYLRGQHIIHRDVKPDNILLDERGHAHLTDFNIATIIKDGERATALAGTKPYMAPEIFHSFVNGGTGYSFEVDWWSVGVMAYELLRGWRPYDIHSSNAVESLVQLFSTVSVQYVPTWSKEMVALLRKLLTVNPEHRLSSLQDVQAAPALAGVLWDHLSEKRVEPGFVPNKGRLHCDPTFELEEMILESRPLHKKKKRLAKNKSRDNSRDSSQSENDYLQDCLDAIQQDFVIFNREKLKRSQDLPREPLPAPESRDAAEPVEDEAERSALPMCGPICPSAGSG

[7] = molecular target: CDK9/cyclin T1 (Homo sapiens) (UniProt O60563+P50750)
[8] = molecular target: T3, Tyrosine-protein kinase ITK/TSK (Homo sapiens) (UniProt Q08881)
T3 sequence (whole entry): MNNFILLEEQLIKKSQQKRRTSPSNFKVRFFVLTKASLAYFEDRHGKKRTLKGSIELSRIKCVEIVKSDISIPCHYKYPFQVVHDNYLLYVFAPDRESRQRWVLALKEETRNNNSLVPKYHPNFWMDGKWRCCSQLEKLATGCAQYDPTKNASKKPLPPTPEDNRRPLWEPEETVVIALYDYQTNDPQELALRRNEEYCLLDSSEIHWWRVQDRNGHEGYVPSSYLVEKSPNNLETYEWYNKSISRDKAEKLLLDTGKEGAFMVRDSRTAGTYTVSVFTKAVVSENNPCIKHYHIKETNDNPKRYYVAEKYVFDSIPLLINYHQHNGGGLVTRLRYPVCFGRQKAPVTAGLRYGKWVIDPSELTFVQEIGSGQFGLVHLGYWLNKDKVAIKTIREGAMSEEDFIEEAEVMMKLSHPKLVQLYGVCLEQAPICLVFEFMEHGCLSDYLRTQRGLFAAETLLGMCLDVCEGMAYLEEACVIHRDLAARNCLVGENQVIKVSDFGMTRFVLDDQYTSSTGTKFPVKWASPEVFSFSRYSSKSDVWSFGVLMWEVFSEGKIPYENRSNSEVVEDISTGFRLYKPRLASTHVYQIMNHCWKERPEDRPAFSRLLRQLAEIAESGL

[9] = molecular target: High affinity nerve growth factor receptor (Homo sapiens) (UniProt P04629)
High affinity nerve growth factor receptor (Homo sapiens), sequence (P04629 33-796 limits assumed): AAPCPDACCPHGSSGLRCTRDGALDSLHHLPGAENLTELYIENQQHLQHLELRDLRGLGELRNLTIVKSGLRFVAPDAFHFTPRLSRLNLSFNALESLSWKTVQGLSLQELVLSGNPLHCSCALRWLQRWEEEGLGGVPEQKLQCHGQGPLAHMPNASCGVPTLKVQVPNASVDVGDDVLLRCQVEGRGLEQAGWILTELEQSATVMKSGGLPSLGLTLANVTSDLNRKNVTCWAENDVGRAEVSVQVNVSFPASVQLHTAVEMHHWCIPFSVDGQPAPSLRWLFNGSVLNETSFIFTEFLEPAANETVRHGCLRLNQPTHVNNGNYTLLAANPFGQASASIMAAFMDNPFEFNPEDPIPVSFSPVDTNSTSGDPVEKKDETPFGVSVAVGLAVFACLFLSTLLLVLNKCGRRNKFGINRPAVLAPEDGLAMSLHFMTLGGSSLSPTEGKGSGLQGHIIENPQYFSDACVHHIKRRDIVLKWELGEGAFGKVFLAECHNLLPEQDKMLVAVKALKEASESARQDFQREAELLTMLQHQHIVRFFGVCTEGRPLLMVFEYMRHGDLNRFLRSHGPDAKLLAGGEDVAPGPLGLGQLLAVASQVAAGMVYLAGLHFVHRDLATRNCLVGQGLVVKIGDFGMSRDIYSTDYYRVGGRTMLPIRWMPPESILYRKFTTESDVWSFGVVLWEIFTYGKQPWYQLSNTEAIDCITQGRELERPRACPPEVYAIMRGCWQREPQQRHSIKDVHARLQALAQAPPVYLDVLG

[10] = molecular target: Proto-oncogene tyrosine-protein kinase Src (Homo sapiens) (UniProt P12931)
[11] = molecular target: Mitogen-activated protein kinase kinase kinase kinase 5 (Homo sapiens) (UniProt Q9Y4K4)
Mitogen-activated protein kinase kinase kinase kinase 5 (Homo sapiens), sequence (Q9Y4K4 whole entry, looked up): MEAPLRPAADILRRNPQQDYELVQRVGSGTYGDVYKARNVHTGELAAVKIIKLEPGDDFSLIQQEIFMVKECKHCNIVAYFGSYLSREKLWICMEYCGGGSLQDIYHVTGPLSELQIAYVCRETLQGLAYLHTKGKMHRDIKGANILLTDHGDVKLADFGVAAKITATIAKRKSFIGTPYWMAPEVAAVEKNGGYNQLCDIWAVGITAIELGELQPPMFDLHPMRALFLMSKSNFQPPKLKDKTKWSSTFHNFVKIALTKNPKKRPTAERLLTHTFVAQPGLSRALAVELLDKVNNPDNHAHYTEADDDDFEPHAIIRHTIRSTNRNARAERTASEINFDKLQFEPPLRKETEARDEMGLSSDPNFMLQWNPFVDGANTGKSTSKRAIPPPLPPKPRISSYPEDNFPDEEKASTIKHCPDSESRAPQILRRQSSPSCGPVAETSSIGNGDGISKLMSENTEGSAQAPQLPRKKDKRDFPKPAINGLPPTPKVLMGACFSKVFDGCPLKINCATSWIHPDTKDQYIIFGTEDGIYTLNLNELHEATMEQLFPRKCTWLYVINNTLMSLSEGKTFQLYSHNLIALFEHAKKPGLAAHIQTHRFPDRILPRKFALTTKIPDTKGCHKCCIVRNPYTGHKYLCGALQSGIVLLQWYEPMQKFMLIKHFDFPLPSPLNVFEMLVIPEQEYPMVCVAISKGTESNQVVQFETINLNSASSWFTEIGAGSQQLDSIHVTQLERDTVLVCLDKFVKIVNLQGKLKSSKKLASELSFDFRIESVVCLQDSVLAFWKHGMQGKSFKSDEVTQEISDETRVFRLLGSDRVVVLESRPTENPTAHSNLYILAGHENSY

[12] = molecular target: Cyclin-dependent kinase 5/CDK5 activator 1 (Homo sapiens) (UniProt Q00535+Q15078)
Cyclin-dependent kinase 5/CDK5 activator 1 (Homo sapiens), sequence (Q00535 whole entry): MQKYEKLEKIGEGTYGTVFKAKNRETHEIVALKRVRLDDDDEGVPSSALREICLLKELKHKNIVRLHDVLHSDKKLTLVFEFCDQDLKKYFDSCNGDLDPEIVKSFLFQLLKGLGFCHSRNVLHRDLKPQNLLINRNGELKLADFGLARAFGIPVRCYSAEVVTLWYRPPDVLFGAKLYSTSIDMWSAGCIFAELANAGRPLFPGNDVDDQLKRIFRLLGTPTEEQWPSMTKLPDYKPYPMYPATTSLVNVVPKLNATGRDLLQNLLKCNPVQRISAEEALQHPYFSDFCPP
Cyclin-dependent kinase 5/CDK5 activator 1 (Homo sapiens), sequence (Q15078 99-307 partner limits assumed): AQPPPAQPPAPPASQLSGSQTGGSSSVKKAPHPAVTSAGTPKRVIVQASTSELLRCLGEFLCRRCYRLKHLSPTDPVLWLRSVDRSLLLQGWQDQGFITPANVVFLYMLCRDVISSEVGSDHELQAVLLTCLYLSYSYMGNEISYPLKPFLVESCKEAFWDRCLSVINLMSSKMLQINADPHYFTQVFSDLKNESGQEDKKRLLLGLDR

[13] = molecular target: Tyrosine-protein kinase Blk (Homo sapiens) (UniProt P51451)
Tyrosine-protein kinase Blk (Homo sapiens), sequence (P51451 2-505 limits assumed): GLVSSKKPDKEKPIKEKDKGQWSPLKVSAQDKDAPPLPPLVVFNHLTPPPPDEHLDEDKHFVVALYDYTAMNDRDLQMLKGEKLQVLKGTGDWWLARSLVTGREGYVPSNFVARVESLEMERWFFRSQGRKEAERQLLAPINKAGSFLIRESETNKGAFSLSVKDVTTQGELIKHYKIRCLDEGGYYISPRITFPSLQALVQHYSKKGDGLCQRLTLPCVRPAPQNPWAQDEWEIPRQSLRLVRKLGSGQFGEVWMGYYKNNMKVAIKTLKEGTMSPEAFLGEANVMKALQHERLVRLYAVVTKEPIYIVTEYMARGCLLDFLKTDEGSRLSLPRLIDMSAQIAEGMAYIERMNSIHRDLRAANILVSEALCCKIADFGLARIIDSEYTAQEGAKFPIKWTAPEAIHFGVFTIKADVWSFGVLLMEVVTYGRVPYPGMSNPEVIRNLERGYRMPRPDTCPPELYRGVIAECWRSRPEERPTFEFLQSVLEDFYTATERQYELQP

Measured: % residual kinase activity

Serine/threonine-protein kinase 33 (Homo sapiens), sequence (Q9BYT3 whole entry, looked up): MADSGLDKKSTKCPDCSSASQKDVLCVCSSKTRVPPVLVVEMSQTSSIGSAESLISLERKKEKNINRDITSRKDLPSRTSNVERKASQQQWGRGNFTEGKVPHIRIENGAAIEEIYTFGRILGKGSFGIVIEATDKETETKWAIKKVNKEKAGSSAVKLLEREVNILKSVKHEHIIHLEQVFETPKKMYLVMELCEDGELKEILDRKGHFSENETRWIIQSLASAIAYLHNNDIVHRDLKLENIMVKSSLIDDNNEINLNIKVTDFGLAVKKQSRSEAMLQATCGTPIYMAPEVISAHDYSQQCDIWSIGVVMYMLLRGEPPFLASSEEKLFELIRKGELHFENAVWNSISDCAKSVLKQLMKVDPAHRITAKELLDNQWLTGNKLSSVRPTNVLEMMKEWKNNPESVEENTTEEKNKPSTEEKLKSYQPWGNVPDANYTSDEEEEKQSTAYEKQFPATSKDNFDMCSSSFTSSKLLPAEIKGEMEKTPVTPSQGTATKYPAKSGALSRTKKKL

CN1CCN(c2cnc3c(C4CCN(C(=O)c5ccc(OC(F)(F)F)cc5N)CC4)ncnc3c2)CC1 [BAY-885]
inactive: [1] 103% | [2] 127% | [3] 114% | [4] 110% | [5] 100% | [6] 103% | [7] 103% | [8] 105% | [9] 110% | [10] 113% | [11] 99% | [12] 107% | [13] 88%
